Data taken from the supplement of paper PMC5908809.

What was measured:
[1] = test system: normal NK cells expanded with K562-aAPC; assay: percent inhibition of viability; higher = more inhibition; conditions: 72 h, IL-2 2.5 ng/mL
Experimental: (§1)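 Drug sensitivity and resistance testing on K562-aAPC-expanded normal NK cells: 5 concentrations (10-fold steps over a 10,000-fold range), 72 h at 37 °C, viability by CellTiter-Glo normalised to DMSO and benzethonium chloride controls; DSS from the fitted curve.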

[2] = test system: NKL (IL-2 2.5 ng/mL); assay: drug sensitivity score (DSS) (DSS units); higher = more sensitive; extreme values may be limits of the assay; conditions: 72 h
[3] = test system: KHYG-1 (IL-2 2.5 ng/mL); assay: as above; conditions: 72 h
[4] = test system: DERL-7 (IL-2 2.5 ng/mL); assay: as above; conditions: 72 h
[5] = test system: SNK-6 (IL-2 2.5 ng/mL); assay: as above; conditions: 72 h
[6] = test system: KAI3 (IL-2 2.5 ng/mL); assay: as above; conditions: 72 h
[7] = test system: normal primary NK cells, pool 1 (3 donors) (IL-2 2.5 ng/mL); assay: as above; conditions: 72 h
[8] = test system: normal primary NK cells, pool 2 (3 donors) (IL-2 2.5 ng/mL); assay: as above; conditions: 72 h
[9] = test system: normal primary NK cells, pool 3 (3 donors) (IL-2 2.5 ng/mL); assay: as above; conditions: 72 h
[10] = test system: NK-92 (IL-2 2.5 ng/mL); assay: as above; conditions: 72 h
[11] = test system: YT (IL-2 2.5 ng/mL); assay: as above; conditions: 72 h
[12] = test system: NK-YS (IL-2 2.5 ng/mL); assay: as above; conditions: 72 h
[13] = test system: normal primary NK cells, pool 1 (3 donors), resting (IL-2 0 ng/mL); assay: as above; conditions: 72 h
[14] = test system: IMC-1 (IL-2 20 ng/mL); assay: as above; conditions: 72 h
[15] = test system: normal NK cells expanded with K562-aAPC; assay: as above; conditions: 72 h; IL-2 2.5 ng/mL
Experimental: as §1

[16] = test system: NKL (IL-2 2.5 ng/mL); assay: percent inhibition of viability; higher = more inhibition; conditions: 72 h
[17] = test system: KHYG-1 (IL-2 2.5 ng/mL); assay: as above; conditions: 72 h
[18] = test system: DERL-7 (IL-2 2.5 ng/mL); assay: as above; conditions: 72 h
[19] = test system: SNK-6 (IL-2 2.5 ng/mL); assay: as above; conditions: 72 h
[20] = test system: KAI3 (IL-2 2.5 ng/mL); assay: as above; conditions: 72 h
[21] = test system: normal primary NK cells, pool 1 (3 donors) (IL-2 2.5 ng/mL); assay: as above; conditions: 72 h
[22] = test system: normal primary NK cells, pool 2 (3 donors) (IL-2 2.5 ng/mL); assay: as above; conditions: 72 h
[23] = test system: normal primary NK cells, pool 3 (3 donors) (IL-2 2.5 ng/mL); assay: as above; conditions: 72 h
[24] = test system: NK-92 (IL-2 2.5 ng/mL); assay: as above; conditions: 72 h
[25] = test system: YT (IL-2 2.5 ng/mL); assay: as above; conditions: 72 h
[26] = test system: NK-YS (IL-2 2.5 ng/mL); assay: as above; conditions: 72 h
[27] = test system: normal primary NK cells, pool 1 (3 donors), resting (IL-2 0 ng/mL); assay: as above; conditions: 72 h
[28] = test system: IMC-1 (IL-2 20 ng/mL); assay: as above; conditions: 72 h

CCC(C)(C)C(=O)O[C@H]1C[C@@H](C)C=C2C=C[C@H](C)[C@H](CC[C@@H]3C[C@@H](O)CC(=O)O3)[C@H]21 [Simvastatin] (max concentration tested 10000 nM)
percent inhibition of viability [%]
Conditions | 1 nM | 10 nM | 100 nM | 1000 nM | 10000 nM
[1] | 0.17 | -4.47 | -1.19 | -2.06 | 6.89
[16] | -16.6 | -8.92 | 0.63 | 6 | 68.9
[17] | 2.27 | -0.82 | 3.03 | 5.63 | 11.2
[18] | -1.97 | -3.51 | 4.88 | 4.07 | 10.3
[19] | 4.57 | -0.33 | 6.13 | -5.3 | 1.07
[20] | 3.02 | -8.09 | -7.7 | -3.05 | 22.5
[21] | -7.84 | 9.33 | -16.5 | -3.95 | 8.72
[22] | -9.03 | -7.28 | -6.35 | 14.3 | 19.6
[23] | -9.67 | -10.8 | -5.99 | 4.87 | 2.32
[24] | -8.62 | -9.55 | 2.91 | -5.14 | -1.54
[25] | 0.42 | -0.1 | 0.72 | 2.62 | 23.9
[26] | -1.72 | 2.03 | 2 | 6.51 | 68.6
[27] | -0.52 | -1.88 | -12.8 | -6.51 | 13.3
[28] | -0.2 | -3.36 | 3.54 | 3.84 | 38.1

Conditions | drug sensitivity score
[2] | 4.74
[3] | 0
[4] | 0
[5] | 0
[6] | 0.61
[7] | 0
[8] | 1.89
[9] | 0
[10] | 0
[11] | 1.26
[12] | 4.82
[13] | 0.04
[14] | 2.48
[15] | 0

NC(=O)NO [Hydroxyurea] (max concentration tested 100000 nM)
percent inhibition of viability [%]
Conditions | 10 nM | 100 nM | 1000 nM | 10000 nM | 100000 nM
[1] | 2.1 | -5.76 | -2.1 | 8.98 | 49.1
[16] | 4.79 | -0.36 | 15 | 24.1 | 48.3
[17] | -10.9 | -7.34 | -3.16 | 8.85 | 17.1
[18] | 2.03 | -0.08 | 8.03 | -3.4 | 12.6
[19] | 15.2 | -7.82 | -13.1 | -12.9 | 1.36
[20] | 24.5 | 13.1 | 12.7 | 20.9 | 51.8
[21] | -2.1 | 5.26 | 3.61 | -8.28 | 4.04
[22] | 1.52 | 0.13 | 10.8 | 4.35 | 13.4
[23] | 6.75 | 1.29 | 8.4 | -5.82 | 7.32
[24] | 6.26 | 6.63 | 2.07 | 31.3 | 48.5
[25] | -10.8 | -9.74 | -3.92 | 0.46 | 14.2
[26] | -0.41 | -2.69 | -1.46 | 3.98 | 29.3
[27] | 15.8 | 15.8 | 15.4 | 15.8 | 15.6
[28] | -6.14 | -2.56 | -2.39 | -0.1 | 9.95

Conditions | drug sensitivity score
[2] | 6.01
[3] | 1.16
[4] | 0.03
[5] | 0
[6] | 8.49
[7] | 0
[8] | 0.1
[9] | 0
[10] | 6.31
[11] | 0.2
[12] | 1.89
[13] | 4.95
[14] | 0
[15] | 4.07

COC[C@H](NC(=O)c1cnc(C)s1)C(=O)N[C@@H](COC)C(=O)N[C@@H](Cc1ccccc1)C(=O)[C@@]1(C)CO1 [Oprozomib] (max concentration tested 2500 nM)
percent inhibition of viability [%]
Conditions | 0.25 nM | 2.5 nM | 25 nM | 250 nM | 2500 nM
[1] | -1.45 | 0.37 | 40.2 | 101 | 102
[16] | -18 | -8.51 | 12.1 | 107 | 110
[17] | -7.33 | -2.59 | 15.4 | 108 | 110
[18] | -5.62 | 7.77 | 81.9 | 101 | 101
[19] | -7.89 | -7.58 | 14.6 | 101 | 101
[20] | -8.21 | -2.86 | 52.1 | 105 | 108
[21] | -9.35 | 5.43 | 36 | 97.7 | 99.8
[22] | -5.27 | 3.49 | 62.8 | 94.6 | 99.5
[23] | -7.05 | -2.21 | 50.4 | 99 | 100
[24] | -20.8 | 3.65 | 34.1 | 107 | 110
[25] | -8.11 | -6.26 | 14.6 | 106 | 110
[26] | -6.41 | -1.88 | 43.6 | 106 | 109
[27] | -25.2 | 0.23 | 62.4 | 92.9 | 97.7
[28] | -7.29 | -3.63 | 0.39 | 101 | 101

Conditions | drug sensitivity score
[2] | 20.2
[3] | 20.7
[4] | 28.6
[5] | 20.4
[6] | 24.4
[7] | 22
[8] | 25.4
[9] | 24.2
[10] | 22.8
[11] | 20.6
[12] | 23.7
[13] | 25
[14] | 18.1
[15] | 23.4

CC(C)Cn1cnc2c(N)nc3ccccc3c21 [Imiquimod] (max concentration tested 2500 nM)
percent inhibition of viability [%]
Conditions | 0.25 nM | 2.5 nM | 25 nM | 250 nM | 2500 nM
[1] | -2.97 | -4.12 | -1.05 | 14.8 | 11.3
[16] | -2.54 | -14.7 | -1.93 | 3.67 | 1.08
[17] | -3 | -3.08 | 2.45 | 6.32 | 13.8
[18] | -5 | 4.44 | -3.41 | 4.83 | -1.82
[19] | 10.3 | -13.6 | 12.2 | 44 | 57.8
[20] | -2.07 | -8.41 | 6.25 | 5.37 | 17.9
[21] | -14.4 | 5.91 | -7.15 | -9.14 | 5.82
[22] | -8 | -6.73 | -8.32 | -4.68 | 20.8
[23] | -14.7 | -9.92 | -6.17 | -5.82 | 6.93
[24] | -7.9 | -11.3 | -5.41 | 5.55 | 12.3
[25] | -4.4 | -3 | 5.75 | 3.31 | 4.52
[26] | -0.76 | -2.23 | 5.71 | 6 | 16.1
[27] | -4.66 | 7.46 | -14.7 | -14.5 | -19.1
[28] | 2.11 | -3.32 | 4.26 | 10.8 | 22.2

Conditions | drug sensitivity score
[2] | 0
[3] | 0.26
[4] | 0
[5] | 9.47
[6] | 0.57
[7] | 0
[8] | 0.45
[9] | 0
[10] | 0.3
[11] | 0
[12] | 0.38
[13] | 0
[14] | 1.48
[15] | 1.27
